According to patent US6262051A, “Fungicidal methoximinomethyldioxazines” (Bayer Aktiengesellschaft, priority 1997, dated 2001):

Experiments:
[1] = tested on: Erysiphe graminis f.sp. hordei; test: Example B: Erysiphe test (barley)/curative; format: in vivo; conditions: curative (sprayed 48 hours after inoculation), 250 g/ha, 7 days after inoculation, vs untreated control
Protocol: (§1) Erysiphe test (barley)/curative Solvent: 10 parts by weight of N-methyl-pyrrolidone Emulsifier: 0.6 part by weight of alkylaryl polyglycol ether To produce a suitable preparation of active compound, 1 part by weight of active compound is mixed with the stated amount of solvent and emulsifier, and the concentrate is diluted with water to the desired concentration. To test for curative activity, young plants are dusted with spores of Erysiphe graminis f.sp. hordei. 48 hours after the inoculation, the plants are sprayed with the preparation of active compound at the stated application rate. The plants are placed in a greenhouse at a temperature of approximately 20° C. and a relative atmospheric humidity of approximately 80% to promote the development of mildew postures.

Pyricularia oryzae = format: in vivo; conditions: rice, protective; 750 g/ha; 4 days after inoculation; vs untreated control
HPLC logP = format: physicochemical; conditions: Table 1
Plasmopara viticola = test: Example D: Plasmopara test (grapevine)/protective; format: in vivo; conditions: Plasmopara viticola, 144 h, protective, 6 days after inoculation, vs untreated control, read-out: Efficacy in %
Protocol: Plasmopara test (grapevine)/protective Solvent: 47 parts by weight of acetone Emulsifier: 3 parts by weight of alkylaryl polyglycol ether To produce a suitable preparation of active compound, 1 part by weight of active compound is mixed with the stated amount of solvent and emulsifier, and the concentrate is diluted with water to the desired concentration. To test for protective activity, young plants are sprayed with the preparation of active compound at the stated application rate. […]

[2] = tested on: Erysiphe graminis f.sp. hordei; test: Example A: Erysiphe test (barley)/protective (N-methyl-pyrrolidone); format: in vivo; conditions: protective, 250 g/ha, 7 days after inoculation, vs untreated control
Protocol: as §1, with “test (barley)/protective” for “test (barley)/curative”, “0.6 parts” for “0.6 part”, “for protective” for “for curative”, “young” for “young plants are dusted with spores of Erysiphe graminis f.sp. hordei. 48 hours after the inoculation, the”, “rate. After the spray coating has dried on, the plants are dusted with spores of Erysiphe graminis f.sp. hordei.” for “rate.”, “mildew postules.” for “mildew postures.”

[3] = tested on: Erysiphe graminis f.sp. hordei; test: Example C: Erysiphe test (barley)/protective (N,N-dimethylacetamide); format: in vivo; conditions: protective, solvent N,N-dimethylacetamide, 250 g/ha, 7 days after inoculation, vs untreated control
Protocol: Erysiphe test (barley)/protective Solvent: 25 parts by weight of N,N-dimethylacetamide Emulsifier: 0.6 part by weight of alkylaryl polyglycol ether To produce a suitable preparation of active compound, 1 part by weight of active compound is mixed with the stated amount of solvent and emulsifier, and the concentrate is diluted with water to the desired concentration. To test for protective activity, young plants are sprayed with the preparation of active compound at the stated application rate. After the spray coating has dried on, the plants are dusted with spores of Erysiphe graminis f.sp. hordei. The plants are placed in a greenhouse at a temperature of approximately 20° C. and a relative atmospheric humidity of approximately 80% to promote the development of mildew postules.

**Q.** For `CON=C(C1=NOCCO1)c1ccccc1Oc1nccc(OCC(F)(F)F)n1` [Example 3], which Efficacy in % [1] is on record?
**A.** The Efficacy in % was 100%.

**Q.** And the Efficacy in % (Pyricularia oryzae)?
**A.** The Efficacy in % was “at least 70%”.

**Q.** And the chromatographic logP (HPLC logP)?
**A.** Its chromatographic logP is 2.6.

**Q.** What about the pest or weed control at 100 g/ha (Plasmopara viticola) of the same compound?
**A.** Its pest or weed control at 100 g/ha is at most 100%.

**Q.** What about the Efficacy in % [2] of the same compound?
**A.** The Efficacy in % was 100%.

**Q.** Which Efficacy in % [3] does the source give for `CCCCCCOc1ccnc(Oc2ccccc2C(=NOC)C2=NOCCO2)n1` [Example 13] here?
**A.** The Efficacy in % was 100%.

**Q.** What about the chromatographic logP (HPLC logP) of the same compound?
**A.** Its chromatographic logP is 3.8.

**Q.** And the pest or weed control at 100 g/ha (Plasmopara viticola)?
**A.** The pest or weed control at 100 g/ha was at most 100%.
